Results reported in ChEMBL document CHEMBL5055626 (J Med Chem, 2021).
Where a SMILES comes first, the peptide text is derived from it. Bridges are numbered along the chain shown (N, C = ends).

Assays:
[1] = Antagonist activity at rat alpha6/ alpha3beta2beta3 nAChR
[2] = biological target: T1, Nicotinic acetylcholine receptor alpha6/alpha3/beta4 (Homo sapiens, UniProt P30926+P32297+Q15825); assay: Antagonist activity at rat alpha6/alpha3beta4 nAChR; type: protein-complex assay; settings: target entry is the homologue from another species
[3] = biological target: T2, Neuronal acetylcholine receptor subunit alpha-7 (Rattus norvegicus, UniProt Q05941); assay: Antagonist activity at rat alpha7 nAChR expressed in xenopus oocytes assessed as inhibition of Ach- induced response at -80 mV holding potential incubated for 200 secs followed by Ach stimulation by voltage-clamp based electrophysiological method; type: cell-based, Oocyte
[4] = biological target: T3, Neuronal acetylcholine receptor; alpha3/beta4 (Rattus norvegicus, UniProt P04757+P12392); assay: Antagonist activity at rat alpha3beta4 nAChR expressed in xenopus oocytes assessed as inhibition of Ach- induced response at -80 mV holding potential incubated for 200 secs followed by Ach stimulation by voltage-clamp based electrophysiological method; type: cell-based, Oocyte
[5] = biological target: T3, Neuronal acetylcholine receptor; alpha3/beta4; assay: Antagonist activity at rat alpha3beta4 nAChR; type: protein-complex assay
[6] = biological target: Neuronal acetylcholine receptor; alpha3/beta2 (Rattus norvegicus, UniProt P04757+P12390); assay: Antagonist activity at rat alpha3beta2 nAChR expressed in xenopus oocytes assessed as inhibition of Ach- induced response at -70 mV holding potential preincubated for 5 mins followed by Ach stimulation by voltage-clamp based electrophysiological method; type: cell-based, Oocyte
[7] = biological target: T1, Nicotinic acetylcholine receptor alpha6/alpha3/beta4; assay: Antagonist activity at rat alpha6/alpha3beta4 nAChR expressed in xenopus oocytes assessed as inhibition of Ach- induced response at -70 mV holding potential preincubated for 5 mins followed by Ach stimulation by voltage-clamp based electrophysiological method; type: cell-based, Oocyte
[8] = Antagonist activity at rat alpha6/ alpha3beta2beta3 nAChR expressed in xenopus oocytes assessed as inhibition of Ach- induced response at -70 mV holding potential preincubated for 5 mins followed by Ach stimulation by voltage-clamp based electrophysiological method; type: cell-based; settings: Oocyte
[9] = biological target: T2, Neuronal acetylcholine receptor subunit alpha-7; assay: Antagonist activity at rat alpha7 nAChR expressed in xenopus oocytes assessed as inhibition of Ach- induced response at -70 mV holding potential preincubated for 5 mins followed by Ach stimulation by voltage-clamp based electrophysiological method; type: cell-based, Oocyte
[10] = biological target: T2, Neuronal acetylcholine receptor subunit alpha-7; assay: Antagonist activity at rat alpha7 nAChR expressed in xenopus oocytes assessed as inhibition of Ach- induced response at -100 mV holding potential incubated for 200 secs followed by acetyl choline stimulation by two- electrode voltage-clamp based electrophysiological method; type: cell-based, Oocyte
[11] = biological target: T3, Neuronal acetylcholine receptor; alpha3/beta4; assay: Antagonist activity at rat alpha3beta4 nAChR expressed in xenopus oocytes assessed as inhibition of Ach- induced response at -70 mV holding potential preincubated for 5 mins followed by Ach stimulation by voltage-clamp based electrophysiological method; type: cell-based, Oocyte

T2 sequence (Q05941 whole entry): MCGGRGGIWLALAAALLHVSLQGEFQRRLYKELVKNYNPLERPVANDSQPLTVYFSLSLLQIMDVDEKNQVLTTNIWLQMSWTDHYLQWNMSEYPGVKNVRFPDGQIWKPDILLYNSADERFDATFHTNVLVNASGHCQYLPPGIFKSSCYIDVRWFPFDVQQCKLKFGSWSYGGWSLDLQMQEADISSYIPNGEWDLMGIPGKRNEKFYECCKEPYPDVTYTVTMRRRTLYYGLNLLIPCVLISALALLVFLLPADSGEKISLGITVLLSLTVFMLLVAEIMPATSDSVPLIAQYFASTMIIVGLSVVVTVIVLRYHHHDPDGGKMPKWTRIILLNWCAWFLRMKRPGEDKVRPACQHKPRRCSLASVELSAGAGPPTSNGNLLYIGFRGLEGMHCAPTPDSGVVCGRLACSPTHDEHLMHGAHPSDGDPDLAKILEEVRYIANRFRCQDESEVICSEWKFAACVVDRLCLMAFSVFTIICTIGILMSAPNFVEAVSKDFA
T1 sequence (P30926 whole entry): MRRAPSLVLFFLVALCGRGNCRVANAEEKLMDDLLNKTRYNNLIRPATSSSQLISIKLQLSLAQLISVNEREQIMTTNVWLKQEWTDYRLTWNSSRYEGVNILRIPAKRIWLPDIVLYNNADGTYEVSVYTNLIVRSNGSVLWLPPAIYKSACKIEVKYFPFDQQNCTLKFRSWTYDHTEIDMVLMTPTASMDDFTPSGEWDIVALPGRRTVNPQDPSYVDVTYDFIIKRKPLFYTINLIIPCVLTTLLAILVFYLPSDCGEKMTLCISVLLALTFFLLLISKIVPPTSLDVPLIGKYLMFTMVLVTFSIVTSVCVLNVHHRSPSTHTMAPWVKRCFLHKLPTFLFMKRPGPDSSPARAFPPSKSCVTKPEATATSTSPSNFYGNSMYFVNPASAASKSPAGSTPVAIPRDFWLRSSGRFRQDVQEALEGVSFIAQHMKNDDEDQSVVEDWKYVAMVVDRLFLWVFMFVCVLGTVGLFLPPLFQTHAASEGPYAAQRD
T1 sequence (P32297 whole entry): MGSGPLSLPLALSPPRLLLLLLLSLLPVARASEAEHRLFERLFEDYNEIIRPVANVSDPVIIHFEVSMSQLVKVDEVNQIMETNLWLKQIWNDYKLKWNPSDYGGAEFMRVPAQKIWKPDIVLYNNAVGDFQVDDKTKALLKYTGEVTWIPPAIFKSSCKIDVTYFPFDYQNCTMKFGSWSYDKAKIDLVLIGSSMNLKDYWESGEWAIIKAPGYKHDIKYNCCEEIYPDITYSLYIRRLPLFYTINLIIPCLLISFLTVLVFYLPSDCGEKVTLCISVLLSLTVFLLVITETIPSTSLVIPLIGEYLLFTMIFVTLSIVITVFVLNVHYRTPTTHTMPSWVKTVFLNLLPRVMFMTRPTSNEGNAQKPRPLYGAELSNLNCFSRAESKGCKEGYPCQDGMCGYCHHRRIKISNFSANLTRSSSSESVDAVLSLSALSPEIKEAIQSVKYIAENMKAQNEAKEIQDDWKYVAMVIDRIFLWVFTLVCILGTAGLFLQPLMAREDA
T1 sequence (Q15825 whole entry): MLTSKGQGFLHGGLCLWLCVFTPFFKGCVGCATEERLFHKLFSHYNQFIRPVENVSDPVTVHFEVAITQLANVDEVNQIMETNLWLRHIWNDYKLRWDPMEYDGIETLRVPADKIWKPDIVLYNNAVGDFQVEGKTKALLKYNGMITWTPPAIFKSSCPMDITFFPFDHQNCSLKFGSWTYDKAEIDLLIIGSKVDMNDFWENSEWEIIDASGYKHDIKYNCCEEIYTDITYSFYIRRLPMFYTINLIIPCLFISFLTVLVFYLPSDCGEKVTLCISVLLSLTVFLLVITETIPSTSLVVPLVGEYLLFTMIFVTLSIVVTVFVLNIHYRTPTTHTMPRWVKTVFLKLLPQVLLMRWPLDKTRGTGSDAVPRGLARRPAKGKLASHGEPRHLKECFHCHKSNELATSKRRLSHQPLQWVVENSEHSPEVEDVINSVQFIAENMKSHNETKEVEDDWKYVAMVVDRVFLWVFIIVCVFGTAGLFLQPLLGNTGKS
T3 sequence (P04757 whole entry): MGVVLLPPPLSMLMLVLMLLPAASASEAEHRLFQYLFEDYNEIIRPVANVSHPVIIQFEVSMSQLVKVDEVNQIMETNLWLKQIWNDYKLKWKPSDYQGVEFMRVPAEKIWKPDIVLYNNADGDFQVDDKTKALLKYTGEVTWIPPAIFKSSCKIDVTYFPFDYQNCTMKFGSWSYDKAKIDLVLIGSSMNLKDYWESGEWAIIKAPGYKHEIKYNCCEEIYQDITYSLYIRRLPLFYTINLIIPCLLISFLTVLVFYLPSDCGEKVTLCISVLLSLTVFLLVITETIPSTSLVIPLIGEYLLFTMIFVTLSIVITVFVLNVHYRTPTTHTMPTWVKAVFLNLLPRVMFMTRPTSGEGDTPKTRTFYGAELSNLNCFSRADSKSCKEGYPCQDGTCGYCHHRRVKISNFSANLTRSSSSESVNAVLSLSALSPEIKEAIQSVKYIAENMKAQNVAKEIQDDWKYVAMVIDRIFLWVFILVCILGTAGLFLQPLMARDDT
T3 sequence (P12392 whole entry): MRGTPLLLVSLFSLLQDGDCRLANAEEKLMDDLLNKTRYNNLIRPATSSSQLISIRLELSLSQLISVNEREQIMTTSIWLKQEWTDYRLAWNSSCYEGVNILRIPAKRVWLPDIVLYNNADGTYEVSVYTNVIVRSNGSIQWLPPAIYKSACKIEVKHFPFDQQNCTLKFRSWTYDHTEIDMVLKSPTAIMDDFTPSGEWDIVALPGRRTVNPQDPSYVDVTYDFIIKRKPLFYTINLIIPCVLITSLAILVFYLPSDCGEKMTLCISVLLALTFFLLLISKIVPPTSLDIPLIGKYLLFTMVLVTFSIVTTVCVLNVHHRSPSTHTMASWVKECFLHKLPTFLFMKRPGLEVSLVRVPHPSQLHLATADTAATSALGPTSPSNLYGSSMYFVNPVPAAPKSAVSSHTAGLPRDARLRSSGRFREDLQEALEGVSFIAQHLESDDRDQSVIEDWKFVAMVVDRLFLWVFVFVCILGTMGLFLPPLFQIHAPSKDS
Chain of Neuronal acetylcholine receptor; alpha3/beta2 (P04757 whole entry): as the sequence (P04757 whole entry) above
Chain of Neuronal acetylcholine receptor; alpha3/beta2 (P12390 whole entry): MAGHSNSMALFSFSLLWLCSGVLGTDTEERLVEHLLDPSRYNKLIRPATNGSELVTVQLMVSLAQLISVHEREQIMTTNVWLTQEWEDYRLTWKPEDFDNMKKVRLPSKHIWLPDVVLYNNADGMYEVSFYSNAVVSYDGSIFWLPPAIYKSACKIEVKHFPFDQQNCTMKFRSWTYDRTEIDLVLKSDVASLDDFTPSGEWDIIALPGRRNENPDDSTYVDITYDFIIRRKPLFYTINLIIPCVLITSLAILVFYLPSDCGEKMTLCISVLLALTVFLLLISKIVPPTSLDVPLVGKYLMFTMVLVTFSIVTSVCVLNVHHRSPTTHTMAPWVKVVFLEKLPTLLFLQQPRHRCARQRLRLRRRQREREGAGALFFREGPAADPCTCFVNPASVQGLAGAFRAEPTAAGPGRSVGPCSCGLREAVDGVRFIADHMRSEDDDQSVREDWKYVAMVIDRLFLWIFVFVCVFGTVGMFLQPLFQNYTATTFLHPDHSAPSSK

## CC(C)C[C@@H]1NC(=O)[C@H](C(C)C)NC(=O)[C@H](C)NC(=O)[C@@H]2CSSC[C@H](NC(=O)CN)C(=O)N[C@@H](CSSC[C@H](C(=O)NCC(=O)O)NC(=O)[C@H](Cc3ccc(O)cc3)NC1=O)C(=O)N[C@@H](CO)C(=O)N[C@@H]([C@@H](C)O)C(=O)N1CC(O)C[C@H]1C(=O)N1CCC[C@H]1C(=O)N2 (stereo partly specified)
[1]
  IC50: 1300 nM
[2]
  IC50: 12 nM

## CC(C)[C@@H]1NC(=O)[C@H](Cc2cnc[nH]2)NC(=O)[C@@H]2CCCN2C(=O)[C@H](CC(N)=O)NC(=O)[C@H](CC(N)=O)NC(=O)[C@H](C(C)C)NC(=O)[C@H](CCCNC(=N)N)NC(=O)[C@@H]2CSSC[C@H](NC(=O)[C@H](CCC(=O)O)NC(=O)[C@@H](N)CC(=O)O)C(=O)N[C@@H](CSSC[C@@H](C(=O)N[C@@H](CCCNC(=N)N)C(=O)N[C@@H](CCCNC(=N)N)C(=O)N[C@@H](CCCNC(=N)N)C(=O)O)NC1=O)C(=O)N[C@@H](CO)C(=O)N[C@@H](CC(N)=O)C(=O)N1CCC[C@H]1C(=O)N[C@@H](C)C(=O)N2
[3]
  IC50: 5 nM
[4]
  IC50: 3 nM

## CC(C)C[C@@H]1NC(=O)[C@H](C(C)C)NC(=O)[C@H](C)NC(=O)[C@@H]2CSSC[C@H](NC(=O)CN)C(=O)N[C@@H](CSSC[C@H](C(=O)NCC(=O)O)NC(=O)[C@H](Cc3ccc(O)cc3)NC1=O)C(=O)N[C@@H](CO)C(=O)N[C@@H]([C@@H](C)O)C(=O)N1CCC[C@H]1C(=O)N1CCC[C@H]1C(=O)N2
[5]
  IC50: 37.7 nM
[6]
  IC50: 5.7 nM
[7]
  IC50: 1.5 nM
[8]
  IC50: 0.258 nM

## CC[C@H](C)[C@@H]1NC(=O)[C@H](Cc2cnc[nH]2)NC(=O)[C@@H]2CCCN2C(=O)[C@H](CC(N)=O)NC(=O)[C@H](CC(N)=O)NC(=O)[C@H](C(C)C)NC(=O)[C@H](CC(N)=O)NC(=O)[C@@H]2CSSC[C@H](NC(=O)CN)C(=O)N[C@@H](CSSC[C@@H](C(=O)NCC(N)=O)NC1=O)C(=O)N[C@@H](CO)C(=O)N[C@@H](Cc1cnc[nH]1)C(=O)N1CCC[C@H]1C(=O)N[C@@H](C)C(=O)N2 (H-GCCSHPACNVNNPHICG-NH2; disulfide 2-8, 3-16)
[9]
  IC50: 27 nM

## C[C@H](N)C(=O)N[C@H]1CSSC[C@@H]2NC(=O)[C@H](CCCNC(=N)N)NC(=O)[C@H](CCCNC(=N)N)NC(=O)[C@H](CC(=O)O)NC(=O)[C@H](CO)NC(=O)[C@H](CSSC[C@H](C(N)=O)NC(=O)[C@H](CCCNC(=N)N)NC(=O)[C@H](Cc3c[nH]c4ccccc34)NC(=O)[C@H](CCCNC(=N)N)NC2=O)NC1=O
[9]
  IC50: 440 nM

## C[C@@H]1NC(=O)[C@@H]2CSSC[C@H](NC(=O)CN)C(=O)N[C@@H](CSSC[C@@H](C(N)=O)NC(=O)[C@H](CCCNC(=N)N)NC(=O)[C@H](Cc3c[nH]c4ccccc34)NC1=O)C(=O)N[C@@H](CO)C(=O)N[C@@H](CC(=O)O)C(=O)N1CCC[C@H]1C(=O)N[C@@H](CCCNC(=N)N)C(=O)N2
[10]
  IC50: 69 nM

## CC(C)[C@@H]1NC(=O)[C@H](Cc2cnc[nH]2)NC(=O)[C@@H]2CCCN2C(=O)[C@H](CC(N)=O)NC(=O)[C@H](CC(N)=O)NC(=O)[C@H](C(C)C)NC(=O)[C@H](CCCNC(=N)N)NC(=O)[C@H]2CSSC[C@H](NC(=O)[C@H](CCC(=O)O)NC(=O)[C@@H](N)CC(=O)O)C(=O)N[C@@H](CSSC[C@@H](C(=O)N[C@@H](CCCNC(=N)N)C(=O)N[C@@H](CCCNC(=N)N)C(=O)N[C@@H](CCCNC(=N)N)C(=O)O)NC1=O)C(=O)N[C@@H](CO)C(=O)N[C@@H](CC(N)=O)C(=O)N1CCC[C@H]1C(=O)N[C@@H](C)C(=O)N2
[6]
  IC50: 6 nM
[8]
  IC50: 60 nM
[9]
  IC50: 2 nM

## CC(C)C[C@@H]1NC(=O)[C@H](C(C)C)NC(=O)[C@H](C)NC(=O)[C@@H]2CSSC[C@H](NC(=O)CN)C(=O)N[C@@H](CSSC[C@H](C(=O)NCC(=O)O)NC(=O)[C@H](Cc3ccc(O)cc3)NC1=O)C(=O)N[C@@H](CO)C(=O)N[C@@H](C)C(=O)N1CC(O)C[C@H]1C(=O)N1CCC[C@H]1C(=O)N2 (stereo partly specified)
[11]
  IC50: 1200 nM
[7]
  IC50: 58.1 nM
